Measured values as given in ChEMBL document CHEMBL3832044, “DailyMed|setid=dd8d7ec8-79b0-4152-8789-d247c77232ce | ROSIGLITAZONE MALEATE - rosiglitazone maleate tablet|West-ward Pharmaceutical Corp”.

Columns and labels:
Format in all cases: ADME, organism-based
[1] = (§1) Mean pharmacokinetic parameters for Rosiglitazone following single oral doses to 32 healthy fasted or fed subjects.; set-up: dose 8 mg, dose 2 mg, dose 1 mg, route oral; conditions: human, in vivo; dietary status Fasting, dose 1 mg, dosed compound id 50, dosed compound name ROSIGLITAZONE, gender male and female, regimen Single dose, route oral, tissue Plasma
Homo sapiens [2] = assay: as §1; set-up: dose 8 mg, dose 2 mg, dose 1 mg, route oral; conditions: in vivo, po, dosed compound id 50, dosed compound name ROSIGLITAZONE, gender male and female, regimen Single dose, tissue Plasma
Homo sapiens [3] = assay: Oral clearance of Rosiglitazone evaluated after oral or intravenous administration of C-14 Rosiglitazone Maleate; conditions: in vivo, dosed compound id 5, dosed compound name ROSIGLITAZONE MALEATE
[4] = dietary status Fasting, dose 2 mg
[5] = dietary status Fasting, dose 8 mg

CL/F [1]: 50.5 mL/min
half-life [1]: 3.16 h
CL/F (Homo sapiens [2]; [4]): 2.89 L/h
t1/2 (Homo sapiens [2]; [4]): 3.15 h
CL/F (Homo sapiens [2]; [5]): 2.85 L/h
t1/2 (Homo sapiens [2]; [5]): 3.37 h
CL/F (Homo sapiens [2]; dietary status Fed, dose 8 mg): 2.97 L/h
t1/2 (Homo sapiens [2]; dietary status Fed, dose 8 mg): 3.59 h
AUC(0 to inf) (Homo sapiens [2]; dietary status Fed): 2890 ng·h/mL
Cmax (Homo sapiens [2]; dietary status Fed): 432 ng/mL
Excretion (Homo sapiens [3]; tissue Feaces): 23%
Excretion (Homo sapiens [3]; tissue Urine): 64%
SMILES: CN(CCOc1ccc(CC2SC(=O)NC2=O)cc1)c1ccccn1.O=C(O)/C=C\C(=O)O (configuration not stated) [ROSIGLITAZONE MALEATE]
